Measurements published in PMC6691805 (Journal of Enzyme Inhibition and Medicinal Chemistry, 2019).

Target: T1, 17β-HSD1 (Homo sapiens, UniProt P14061)
T1 sequence (P14061 1-328): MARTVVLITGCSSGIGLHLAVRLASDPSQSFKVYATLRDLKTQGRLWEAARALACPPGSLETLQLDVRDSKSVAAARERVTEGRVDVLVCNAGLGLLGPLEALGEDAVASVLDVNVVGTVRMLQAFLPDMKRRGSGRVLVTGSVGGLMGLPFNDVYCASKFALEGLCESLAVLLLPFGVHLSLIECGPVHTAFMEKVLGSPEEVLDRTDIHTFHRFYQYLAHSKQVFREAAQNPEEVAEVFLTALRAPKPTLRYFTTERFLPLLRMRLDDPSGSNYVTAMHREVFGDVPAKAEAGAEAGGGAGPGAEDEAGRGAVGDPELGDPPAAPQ
Assay type: biochemical

For `COC(=O)CO[C@@H]1CC(=O)[C@@]2(C)CC[C@@H]3c4ccc(OCc5ccccc5)cc4CC[C@H]3[C@H]12` [Compound 22, 3-Benzyloxy-15β-(2’-methoxy-2’-oxoethoxy)-estra-1,3,5(10)-trien-17-one], the “cofactor preference in terms of RIP values, favouring the NADPH bound enzyme” value (cofactor preference for NADPH in terms of RIP values) was 2–11 fold and the “17β-HSD1 inhibitory effect (in words)” value (evaluation of potentials obtained with NADPH) was “potent inhibitors”.
